{"source": "patent US7928112B2", "about": "“Substituted 5,6,7,8-tetrahydropyrido[4,3-D]pyrimidines as dipeptidyl peptidase-IV inhibitors for the treatment or prevention of diabetes” (Merck Sharp & Dohme Corp., priority 2006, dated 2011)", "origin": "cited, not measured here", "key": {"DPP-4 [1]": {"target": "T1, DPP-4 (Rattus norvegicus, UniProt P14740)", "T1 construct": "host or cells: rats (in vivo)", "T1 sequence (P14740 whole entry)": "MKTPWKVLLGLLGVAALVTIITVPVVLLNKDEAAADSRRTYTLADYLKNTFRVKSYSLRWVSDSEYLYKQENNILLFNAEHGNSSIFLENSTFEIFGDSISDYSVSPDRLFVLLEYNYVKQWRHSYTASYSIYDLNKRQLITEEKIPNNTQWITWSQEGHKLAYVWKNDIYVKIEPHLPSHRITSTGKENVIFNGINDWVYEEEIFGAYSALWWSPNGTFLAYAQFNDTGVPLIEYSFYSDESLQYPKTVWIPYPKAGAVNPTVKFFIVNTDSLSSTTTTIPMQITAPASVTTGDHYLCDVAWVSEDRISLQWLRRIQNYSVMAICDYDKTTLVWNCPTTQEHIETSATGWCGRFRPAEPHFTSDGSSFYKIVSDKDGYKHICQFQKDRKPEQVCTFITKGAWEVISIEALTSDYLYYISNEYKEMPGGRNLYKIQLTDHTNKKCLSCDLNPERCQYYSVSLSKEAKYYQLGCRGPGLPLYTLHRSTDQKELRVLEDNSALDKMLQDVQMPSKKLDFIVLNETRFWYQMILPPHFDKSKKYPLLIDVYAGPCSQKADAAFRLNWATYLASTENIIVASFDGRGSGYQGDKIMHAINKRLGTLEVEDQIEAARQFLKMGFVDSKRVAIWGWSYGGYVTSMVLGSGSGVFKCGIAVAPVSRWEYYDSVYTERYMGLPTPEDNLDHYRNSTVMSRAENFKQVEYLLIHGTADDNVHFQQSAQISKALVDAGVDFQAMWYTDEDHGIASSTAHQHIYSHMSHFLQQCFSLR", "details": "rats; survival doubled from day 7 to day 14"}, "DPP-4 [2]": {"target": "T2, DPP-4 (Mus musculus, UniProt P28843)", "T2 construct": "host or cells: mouse (in vivo)", "T2 sequence (P28843 whole entry)": "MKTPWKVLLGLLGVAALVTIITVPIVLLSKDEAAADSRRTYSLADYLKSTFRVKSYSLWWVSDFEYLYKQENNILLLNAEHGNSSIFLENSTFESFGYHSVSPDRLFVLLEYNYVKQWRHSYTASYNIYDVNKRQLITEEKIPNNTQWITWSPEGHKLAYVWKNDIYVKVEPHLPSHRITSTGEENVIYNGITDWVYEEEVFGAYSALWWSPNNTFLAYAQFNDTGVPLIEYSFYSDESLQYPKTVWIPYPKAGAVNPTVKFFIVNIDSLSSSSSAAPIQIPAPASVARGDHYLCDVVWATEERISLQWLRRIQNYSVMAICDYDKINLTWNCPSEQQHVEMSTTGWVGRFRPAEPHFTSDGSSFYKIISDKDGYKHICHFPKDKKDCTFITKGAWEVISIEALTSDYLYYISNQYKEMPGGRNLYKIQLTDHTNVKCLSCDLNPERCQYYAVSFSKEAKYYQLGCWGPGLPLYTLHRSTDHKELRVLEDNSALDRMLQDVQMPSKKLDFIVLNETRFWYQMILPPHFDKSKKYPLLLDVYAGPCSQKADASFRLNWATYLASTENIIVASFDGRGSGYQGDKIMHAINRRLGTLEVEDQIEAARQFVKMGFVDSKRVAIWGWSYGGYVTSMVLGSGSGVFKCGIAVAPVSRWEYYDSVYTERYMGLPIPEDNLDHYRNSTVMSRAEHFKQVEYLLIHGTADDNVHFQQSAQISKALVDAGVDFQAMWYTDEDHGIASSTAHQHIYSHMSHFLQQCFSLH", "details": "cyclophosphamide-induced neutropenia"}, "DPP-4 [3]": {"target": "T3, DPP-4 (Homo sapiens, UniProt P27487)", "T3 construct": "GRF is rapidly degraded in plasma to GRF[3-44]; from tissue; host or cells: plasma", "T3 sequence (P27487 39-766 limits assumed, species assumed)": "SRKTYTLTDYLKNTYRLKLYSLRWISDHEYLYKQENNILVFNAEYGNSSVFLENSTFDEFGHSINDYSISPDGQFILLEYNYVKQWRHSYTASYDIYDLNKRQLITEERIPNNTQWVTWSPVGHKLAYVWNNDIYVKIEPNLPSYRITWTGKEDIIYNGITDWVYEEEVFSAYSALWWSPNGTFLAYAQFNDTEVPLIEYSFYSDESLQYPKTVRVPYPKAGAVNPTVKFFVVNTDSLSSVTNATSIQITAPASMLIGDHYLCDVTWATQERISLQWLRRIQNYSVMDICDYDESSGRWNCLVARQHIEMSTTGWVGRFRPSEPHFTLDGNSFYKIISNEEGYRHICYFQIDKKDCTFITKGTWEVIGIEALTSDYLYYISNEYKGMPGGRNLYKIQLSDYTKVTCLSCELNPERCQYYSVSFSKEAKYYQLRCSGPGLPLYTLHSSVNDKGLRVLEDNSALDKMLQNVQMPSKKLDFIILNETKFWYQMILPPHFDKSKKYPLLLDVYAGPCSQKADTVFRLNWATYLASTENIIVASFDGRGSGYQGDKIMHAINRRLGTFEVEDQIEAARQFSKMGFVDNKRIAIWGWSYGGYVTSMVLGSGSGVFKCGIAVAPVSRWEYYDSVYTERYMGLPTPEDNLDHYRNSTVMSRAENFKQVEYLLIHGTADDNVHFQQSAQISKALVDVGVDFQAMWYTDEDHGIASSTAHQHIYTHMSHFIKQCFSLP"}}, "data": [{"smiles": "CC(C)N1CCC(c2ccccc2)(c2ccccc2)CC1", "note": "[Prodipine, Pro-Pro-diphenyl-phosphonate]", "values": [{"measurement": "cardiac allograft survival", "setting": "DPP-4 [1]", "value": 14, "unit": "day"}]}, {"smiles": "CC(C)[C@H](N)C(=O)N1CCC[C@H]1B(O)O", "note": "[Val-Boro-Pro]", "values": [{"measurement": "hematopoiesis", "setting": "DPP-4 [2]", "value": "stimulated hematopoiesis"}]}, {"smiles": "CC[C@H](C)[C@H](N)C(=O)N1CCC[C@H]1C(=O)N[C@H](C(=O)O)[C@@H](C)CC", "note": "[diprotin A]", "values": [{"measurement": "degradation of GRF to GRF[3-44] in plasma", "setting": "DPP-4 [3]", "value": "prevented"}]}]}
